Experimental data as given in BigSolDB 2.1.

CS(=O)(=O)c1ccc(F)cc1
Conditions	solubility (mole fraction)
in acetone, 290.53 K	0.226
in acetone, 298.3 K	0.282
in acetone, 304.2 K	0.331
in chloroform, 288.4 K	0.229
in chloroform, 293.25 K	0.262
in chloroform, 299.93 K	0.312
in chloroform, 305 K	0.352
in ethanol, 291.07 K	0.0162
in ethanol, 297.34 K	0.0302
in ethanol, 303.07 K	0.0471
in ethanol, 308.66 K	0.0744
in ethyl acetate, 293.28 K	0.189
in ethyl acetate, 299.67 K	0.23
in ethyl acetate, 305.75 K	0.278
in ethyl acetate, 313.05 K	0.35
in toluene, 290.84 K	0.0422
in toluene, 298.86 K	0.0744
in toluene, 304.15 K	0.105
in toluene, 306.87 K	0.125
